Values after ≈ are worked out from the molar mass of the structure shown. Read-outs that look alike come from different tables or passages of the source.
How the values were obtained:
AML-12 cells [1] = assay: CCK-8 assay, toxic effects on AML-12 cells; assay type: cell-based; conditions: for IC50: CCK-8, treatment 24 h, read-out: IC50 toward AML12 cells
Experimental: To uncover the potential hepatotoxic components, CCK-8 assay was performed toevaluate the toxic effects of 9 chemicals in PF on AML-12 cells. With the treatment […]
AML-12 cells were seeded into 96-well plates for 24 h until they visibly reached confluence. Then, AML-12 cells were treated with different concentrations of the nine chemical compounds in PF for 24 h. The multiple concentrations of each compound […]
wells were set up for each group. After treatment, AML-12 cells were washed with PBS buffer gently and incubated with DMEM/F12 medium containing 10% CCK-8 solution for 0.5-2 h. OD value was measured with live cell imaging system (Cytation 5,BioTek, USA) at 450 nm.
Cell viability (%) = [(OD value of the experimental group − OD value of the blank group)/ (OD value of the control group − OD value of the blank group)] ×

[2] = Solubility in DMEM/F12 culture medium; conditions: aqueous buffer, kinetic from dmso stock
AML-12 cells [3] = assay: High-content screening of mitotoxic endpoints (MMP by TMRM, mitochondrial superoxide by MitoSOX Red); conditions: 15 μmol/L, 24 h; for mitochondrial toxicity, overall ranking among 9 phytochemicals: MMP and mitochondrial superoxide taken together; for fluorescence intensity of Mitosox red (mitochondrial superoxide): versus control
Experimental: AML-12 cells were purchased from Procell (CL-0602, Wuhan, China) and cultured in cultured in DMEM/F12 medium (Gibco, Thermo Fisher Scientific, USA) with the supplement of 10% fetal bovine serum (FBS, Biological Industrials) and 1% penicillin/streptomycin (FG101-01, Transgene, China). AML-12 cells were maintained in a humidified incubator containing 5% CO2 at 37 °C.
AML-12 cells were seeded into 96-well plates and incubated at 37 °C in an atmosphere containing 5% CO2 for 12 h until they visibly reached confluence. After the cells were treated with the same concentration of each drug (15 μmol/L) for 24 h, the supernatants were removed from the cell plates and the fluorescent dyes were added. Hoechst 33,342 was applied to characterize cell counts and nuclear area. TMRM and MitoSOX™ Red were applied to characterize mitochondrial membrane potential (MMP) and mitochondrial superoxides, respectively. Then, the multi-parameter cytotoxicities were measured by a high content imaging system (Molecular Devices, Metaxpress) and subsequent data analysis was performed by Harmony 3.0 Software (Perkin Elmer, Waltham, MA, USA). Each experiment was assayed in triplicate wells and three independent replicates.

| Compound | toxicity to AML-12 cells (AML-12 cells [1]) | solubility [2] | IC50 (AML-12 cells [1]) | IC50 (AML-12 cells [1]; Mus musculus, AML12) | mitochondrial toxicity, overall ranking among 9 phytochemicals (AML-12 cells [3]) | fluorescence intensity of Mitosox red (mitochondrial superoxide) (AML-12 cells [3]) |
| --- | --- | --- | --- | --- | --- | --- |
| O=c1ccc2ccc3occc3c2o1 [isopsoralen] | no obvious toxicity | 800 µM (≈ 149 µg/mL) | – | – | – | – |
| Corylin | – | – | 34.4 µM | – | – | – |
| CC(C)=CCc1c(O)ccc(C(=O)/C=C/c2ccc(O)cc2)c1O [isobavachalcone] | – | – | – | 28.9 µM | most potent mitochondrial toxicities | prominently promoted |
| CC(C)=CCc1cc2c(cc1O)oc(=O)c1c3ccc(O)cc3oc21 [psoralidin, Psoralidin] | – | – | 17.7 µM | – | – | prominently promoted |
| bavachinin | – | – | 60.2 µM | – | – | – |
| C=C[C@@](C)(/C=C/c1ccc(O)cc1)CCC=C(C)C [bakuchiol] | – | – | – | 35 µM | most potent mitochondrial toxicities | prominently promoted |
| CC(C)=CCc1cc2c(cc1O)O[C@H](c1ccc(O)cc1)CC2=O [bavachin, Bavachin] | – | – | – | 33.2 µM | most potent mitochondrial toxicities | prominently promoted |

Source: PMC10799058, “Exploring the mechanism and phytochemicals in Psoraleae Fructus-induced hepatotoxicity based on RNA-seq, in vitro screening and molecular docking” (Scientific Reports, 2024)
